The source of these data is PubChem BioAssay (NCI).

Test systems include SK-OV-3 ovarian; SK-MEL-28 melanoma; UACC-257 melanoma; MALME-3M melanoma; HOP-62 NSCLC; HT29 colon; HCC-2998 colon; HOP-92 NSCLC; U251 CNS; K-562 leukemia; SNB-19 CNS; BT-549 breast; EKVX NSCLC; HL-60(TB) leukemia; SN12C renal; A498 renal; SK-MEL-2 melanoma; MDA-N; MCF7 breast; ACHN renal.
Holding throughout (test): NCI tumour cell line growth inhibition, 48 h

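These data come from cells grown in 96-well plates and exposed to compound for 48 hours at five concentrations. TGI denotes the concentration required for complete inhibition of growth.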 Where only a bound is given, the exact number is not on record here.

On to `CCCCCCCCCCCC(=O)OCC(C[As](=O)(O)O)OC(=O)CCCCCCCCCCC` (centres undefined), for which the TGI with SK-OV-3 ovarian came to 30.1 µM; in the test on SK-MEL-28 melanoma, 10.1 µM; in the test on UACC-257 melanoma it was 21.9 µM; with MALME-3M melanoma it was 6.49 µM; in the test on HOP-62 NSCLC, 78 µM; in the test on HT29 colon it was 20.2 µM. For the same compound, the TGI in the test on HCC-2998 colon is 14 µM; in the test on HOP-92 NSCLC it was 4.29 µM; with U251 CNS, 2.93 µM; with K-562 leukemia, above 38.9 µM; with SNB-19 CNS, 9.38 µM; in the test with BT-549 breast, 23.3 µM. Also, the TGI was 21 µM with EKVX NSCLC; above 25 µM in the test with HL-60(TB) leukemia; 8.27 µM in the test with SN12C renal; 17.7 µM in the test on A498 renal; 12.1 µM in the test on SK-MEL-2 melanoma; 13 µM with MDA-N. For the same compound, the TGI with MCF7 breast turned out to be 13 µM; with ACHN renal it was 5.04 µM.
Take `Cc1ccc2c3c1O[C@H]1c4[nH]c5ccccc5c4C[C@@]4(O)[C@@H](C2)N(CC2CC2)CC[C@]314`: the TGI turned out to be 31.5 µM with SK-OV-3 ovarian; 36.4 µM in the test on SK-MEL-28 melanoma; 32.8 µM in the test on UACC-257 melanoma; 28.4 µM with MALME-3M melanoma; 33.3 µM in the test with HOP-62 NSCLC; 18.7 µM in the test with HT29 colon. Besides, the TGI in the test with HCC-2998 colon is 12.5 µM; in the test on HOP-92 NSCLC it was 27.5 µM; in the test with U251 CNS, 28.2 µM; with K-562 leukemia, 61.1 µM; with SNB-19 CNS, 32.2 µM; with BT-549 breast, 35.7 µM. The TGI in the test with EKVX NSCLC is 32.9 µM; in the test on HL-60(TB) leukemia, 22.4 µM; in the test with SN12C renal it was 29.1 µM; with A498 renal, 31.8 µM; in the test on SK-MEL-2 melanoma, 31.6 µM; with MDA-N, 30.5 µM. Besides, the results for the TGI in the test on MCF7 breast and in the test on ACHN renal were 31.5 µM and 30.9 µM, respectively.
`COc1cc2cc3c4cc(OC)c(OC)cc4cc[n+]3c(C)c2cc1OC` (tested in a mixture with another compound): the TGI in the test with SK-OV-3 ovarian is above 100 µM; in the test with SK-MEL-28 melanoma, above 100 µM; in the test with UACC-257 melanoma, above 55.5 µM; with MALME-3M melanoma it was above 100 µM; in the test with HOP-62 NSCLC it was above 100 µM; in the test with HT29 colon, above 69.1 µM. Moreover, the TGI in the test with HCC-2998 colon, in the test on HOP-92 NSCLC, with U251 CNS, in the test with K-562 leukemia, in the test with SNB-19 CNS and in the test with BT-549 breast was above 100 µM throughout. Besides, the TGI in the test on EKVX NSCLC, in the test with HL-60(TB) leukemia, with SN12C renal, in the test on A498 renal, in the test with SK-MEL-2 melanoma and in the test with MDA-N was above 100 µM throughout. Further, the TGI in the test on MCF7 breast and in the test on ACHN renal was above 100 µM each time.
With `Cn1c([C@H](C#N)c2ncccc2[N+](=O)[O-])nc2ccccc21`, the TGI was above 100 µM in the test on SK-OV-3 ovarian; above 100 µM with SK-MEL-28 melanoma; above 100 µM with UACC-257 melanoma; above 100 µM in the test with MALME-3M melanoma; 67.6 µM in the test on HOP-62 NSCLC; above 100 µM with HT29 colon. Further, the TGI in the test with HCC-2998 colon, in the test with HOP-92 NSCLC, in the test on U251 CNS, in the test on K-562 leukemia, with SNB-19 CNS and in the test with BT-549 breast was above 100 µM each time. The TGI in the test on EKVX NSCLC, in the test on HL-60(TB) leukemia, in the test on A498 renal, with SK-MEL-2 melanoma, in the test on MDA-N and in the test with MCF7 breast was above 100 µM in each case. The TGI with ACHN renal is above 100 µM.
As for `O=C(N/N=C\C=C\c1ccc([N+](=O)[O-])o1)C(=O)N/N=C\C=C\c1ccc([N+](=O)[O-])o1`, the TGI with SK-OV-3 ovarian, in the test with SK-MEL-28 melanoma, in the test with UACC-257 melanoma, in the test with MALME-3M melanoma, in the test on HOP-62 NSCLC and in the test with HT29 colon was above 100 µM throughout. Besides, the TGI in the test with HCC-2998 colon, in the test on HOP-92 NSCLC, in the test on U251 CNS, in the test with K-562 leukemia, in the test with SNB-19 CNS and in the test with BT-549 breast was above 100 µM in each case. Further, the TGI in the test with EKVX NSCLC was above 100 µM; in the test with HL-60(TB) leukemia it was 87.1 µM; with SN12C renal, above 100 µM; with A498 renal, above 100 µM; in the test with SK-MEL-2 melanoma, above 100 µM; in the test with MDA-N it was above 100 µM. Further, the TGI with MCF7 breast and in the test with ACHN renal was above 100 µM throughout.
Regarding `CO/C=C(/C(=O)OC)c1ccccc1COc1cccc(C(F)(F)F)c1`, the TGI in the test on SK-OV-3 ovarian was above 100 µM; with SK-MEL-28 melanoma it was above 100 µM; in the test on UACC-257 melanoma, 21.3 µM; in the test with MALME-3M melanoma, 29.4 µM; in the test with HOP-62 NSCLC, above 100 µM; in the test with HT29 colon, above 100 µM. The TGI in the test on HCC-2998 colon was above 100 µM; in the test with HOP-92 NSCLC, 50.5 µM; in the test with U251 CNS, above 100 µM; with K-562 leukemia, above 100 µM; in the test on SNB-19 CNS, above 100 µM; with BT-549 breast, above 100 µM. Also, the TGI is above 100 µM in the test on EKVX NSCLC; 3.99 µM in the test with HL-60(TB) leukemia; above 100 µM with SN12C renal; 68.6 µM with A498 renal; 34.2 µM in the test on SK-MEL-2 melanoma; above 100 µM in the test with MDA-N. Moreover, the TGI with MCF7 breast and in the test on ACHN renal was above 100 µM each time.
`CCOC(=O)C1C(=O)CC1(C)C` (centres undefined): the TGI in the test with SK-OV-3 ovarian, in the test on SK-MEL-28 melanoma, with UACC-257 melanoma, in the test on MALME-3M melanoma, in the test on HOP-62 NSCLC and with HT29 colon was above 10 µM in each case. In addition, the TGI in the test with HCC-2998 colon, in the test with HOP-92 NSCLC, with U251 CNS, in the test with K-562 leukemia, in the test with SNB-19 CNS and in the test with BT-549 breast was above 10 µM throughout. Besides, the TGI in the test with EKVX NSCLC, with HL-60(TB) leukemia, in the test with SN12C renal, in the test on A498 renal, in the test on SK-MEL-2 melanoma and in the test on MDA-N was above 10 µM in each case. In addition, the TGI in the test with MCF7 breast and with ACHN renal was above 10 µM each time.
